Tests used:
myocardial infarction = test: Clinical comparison of Compound 2 and Riboxin in subacute myocardial infarction (Example 25); type: in vivo, human
Procedure: A total of 94 patients were examined; of these:
Conventional therapy as for example 24 was given to 30 patients. Each patient continued to receive the treatment which s/he had been given prior to commencement of the trial. Compound 2 was administered in addition to the previous treatment.
All the patients underwent standard laboratory tests prior to commencement of Compound 2 therapy, 14 days after the beginning of the course and upon completion of the course. The tests included clinical blood analysis; general urine analysis; evaluation of creatinine, bilirubin, transaminase activity, blood sugar, cholesterol and β-lipoproteins, malonic dialdehyde, Schiff bases, zinc, iron, copper, plasma potassium and sodium, prothrombin and fibrinogen; and an ECG examination in dynamics.
All the patients received conventional therapy, i.e. nitrates, anticoagulants and/or hypotensive agents as appropriate.
Combination therapy included Compound 2 (1st group—32 patients) or Riboxin (2nd group—18 patients). The agents were administered at a dose of 200 mg three times per day.

[1] = test system: neurogenic dystrophy of the myocardium; test: Myocardial infarction model (electrostimulation), enzymes in rabbit myocardium; type: in vivo, rabbits; conditions: 5 mg/kg; 48 hours after electrostimulation
From the text: The effect of Compound 2 on myocardial tissue in an experimental model of myocardial infarction was examined. In this model system neurogenic dystrophy of the myocardium was induced in rats or rabbits by electrical stimulation of the reflexogenic zone of the aortic arch by implanted electrodes for a period of three hours. […] These changes are accompanied by changes in biochemical indicators such as creatine phosphate, cAMP, and calcium ion concentrations, and changes in the activity of redox enzymes such as succinate dehydrogenase, lactate dehydrogenase, and glucose-6-phosphate dehydrogenase. At a later stage organic lesions of the myocardium such as necrotic and fibrosclerotic foci can be observed.
The effect of Compound 2 given intraperitoneally or orally on these indicators was examined in rats and rabbits following electrostimulation as described above. The effects on levels of creatine phosphate in rat myocardial are shown in Table 19, and the effects on adenosine triphosphatase (ATPase), succinate dehydrogenase and glucose-6-phosphate dehydrogenase rabbit myocardium are shown in Table 20. The effects on cAMP and Ca^++ levels in rabbit myocardial tissue are shown in FIG. 5, and effects on creatine kinase in rabbit myocardium and blood and the levels of creatine phosphate in myocardium are shown in FIG. 6.

white male mice = conditions: for LD50: intraperitoneal injection, white male mice, 14 days observation
Procedure: The acute toxicity of 1,3-dialkyl-4,5-bis (N-methylcarbamoyl)imidazolium salts was assessed following intraperitoneal injection into 200 white male mice weighing 18 to 20 g. Dead animals were counted daily after the administration of the test substance.

[2] = test system: cryogenic ulcer of the gastric mucosa; test: Cryogenic gastric ulcer in rats; type: in vivo; conditions: healing effect over the course of 14 days; regimen not printed in the row
Procedure: (§1) The models used gastric ulcers induced by
c) Ulcer created by local wounding with a cryogenic probe using a method similar to that described above for mouth ulcers.
(§2) The compounds were administered intraperitoneally at a dose of 20 mg/kg; in the cryogenic ulcer model compound 2 was administered either intraperitoneally (10 mg/kg) or orally (20 mg/kg twice daily, ie. a total of 40 mg/kg/day) and was compared to orally-administered gastrocepin (1 mg/kg twice daily, ie. a total of 2 mg/kg/day).

[3] = test system: acute Con A-induced inflammation; test: Acute Con A-induced inflammation (paw oedema) in mice; type: in vivo
Procedure: Saline solution was similarly administered to the control animals. There were 10 mice in each group. After one hour, con A at a dose of 100 mkg/20 g of body weight was administered by sub-plantar injection into the plantar aponeurosis of the left paws of mice of both the experimental and control groups. The same amount of saline splution was injected into the contralateral paws. After one hour, the mice were killed and the experimental and control paws were weighed to assess the reaction index of the inflammation in the ankle-joint (Liubimov et al, 1999).
The anti-inflammatory effect of Compound 2 and Compound 7 was compared in male mice weighing 18-22 g, using the model described in Example 9. The ED50, i.e. the dose reducing paw ooedema by 50% one hour after injection of Concanavalin A, was calculated.

[4] = test system: lesions of the gastric mucosa; test: Gastric lesions induced by electrostimulation of immobilised rats; type: in vivo
Procedure: as §1
a) Electrostimulation of immobilised rats for 3 hours;
as §2

[5] = test system: lesions of the gastric mucosa; test: Gastric lesions induced by immobilization and hypothermia; type: in vivo, rats; design: % reduction of degree of ulceration / % reduction of ulcerated area: concentration or dose not given beside the values; conditions: Protective effect, 30 minutes before the test
Procedure: as §1
b) Immobilization and hypothermia (induced by water cooling);
as §2

[6] = test system: cryogenic injuries of the sigmoid colon; test: Cryogenic damage of the colon, model of ulcerative colitis; type: in vivo, rats; conditions: day 7; oral; Methyl uracil 180 mg/kg, Potassium orotate 50 mg/kg + Riboxin 50 mg/kg, Sulfasalazine 2 g/kg; one figure for the comparison agents
Procedure: A model of cryogenic damage of the colon was used in this experiment to simulate ulcerative colitis. Cryogenic injuries of the sigmoid colon of rats were induced by pressing a metal rod of […] in diameter cooled in liquid nitrogen to the serous membrane of the colon for 10 seconds under ether anaesthesia.
Tests were performed on 67 male rats weighing 180-200 g, with 8 animals in each group. Animals were kept in separate cages, with normal food and water ad libitum. The test compounds were administered orally on the second day after the operation, and then daily until healing was complete. Compound 2 or Compound 6 was administered to test animals at a dose of 20-50 mg/kg. The following agents were used for comparison:
The nature of the healing of the ulcer injury was examined morphologically on days 1, 3 and 7. […] The inflammatory process extends beyond the injured area into the adjacent areas, and beyond the peritoneum into fatty connective tissue.

[7] = test system: liver after partial hepatectomy; test: Morphological study of the liver after partial hepatectomy; type: in vivo, rats; conditions: 0.2 MM/kg; one week after hepatectomy
Procedure: Morphological methods are highly informative in the assessment of repair processes. Histological tests of the liver after partial hepatectomy were performed using generally accepted methods. Microscopic sections were stained with hematoxylin and eosin using Van Gieson's methodology. Liver tests after partial hepatectomy were performed on 8 groups of animals, totalling 37 rats. All animals were examined one week after hepatectomy.

[8] = test system: regeneration of liver after partial hepatectomy; test: Liver regeneration after partial hepatectomy in rats; type: in vivo
Procedure: Partial hepatectomy was performed using the conventional method (Higgins and Anderson, 1931) by removing the left lateral and central lobes of the liver from 80 male white rats, weighing 180-200 g.
Compound 2, Compound 4, Compound 5 or Compound 6 was administered to the experimental groups intraperitoneally in equimolar doses of 0.1 mM/kg and 0.2 mM/kg. These optimal doses were determined in preliminary experiments. The control group received intraperitoneal injections of saline solution. The compounds were administered on the day after the operation and then one injection was given daily over the course of 7 days, since maximum growth of the liver mass in rats is observed in the first 7 days after partial hepatectomy (Solopaev, 1980).
The effectiveness of the compounds was compared to that of a combination of non-steroid anabolic regeneration stimulators which are used in the treatment of liver pathology, namely Riboxin and potassium orotate at a dose of 0.2 mM/kg each (Rychnev and Frolov, 1984).
For quantitative evaluation of the regeneration process in the liver the coefficient of regeneration completion as determined by the formula below was used: [formula] where
Stimulation of the regeneration of tissue after hepatectomy in response to different medicinal preparations is associated with an increase in the synthesis of nucleic acids, as indicated by the increase in the content of RNA and DNA in the regenerated tissue. Quantitative analysis of DNA and RNA was performed by centrifugation. […] The enzymic component of anti-oxidant protection was also assessed on the basis of the activity of catalase and superoxidedismutase (SOD).
5 ml of […] of HCIO4 solution were added to the sample (100 mg). In order to ensure complete sedimentation of the acid-insoluble fraction, the beakers were put in ice for 15 minutes. Then they were centrifuged for 10 minutes at 5000 revolutions per minute. The sediment was washed twice with 0.2 M HCIO4. After the final centrifugation, the walls of the beaker were carefully dried with gauze and filter paper. The sediment was ground down with a glass pestle, suspended in 1 ml of water and then 1 ml of 0.6 M KON solution was added at room temperature. Hydrolysis was performed over the course of 1 hour at 37° C., then the beakers were put in ice to stop the hydrolysis process. 4 ml of the 0.6 M solution were added to each beaker and the beakers were left in ice for another 15 minutes, then centrifuged for 15 minutes at 5000 revolutions per minute. The supernatant was used to determine the RNA by UV absorption at 260 nm and 290 nm compared to the control sample containing 0.4M of HCIO4). The amount of RNA in μg per 1 ml of the supernatant was calculated using the following formula: [formula] where C=is the RNA concentration (μg/ml)
DNA analysis was carried out on the sediment remaining after the alkaline hydrolysis used to determine RNA. 0.5 M of HCIO4 (5 ml per sample) was poured into the dried beaker containing the sediment. Hydrolysis was performed in a boiling water bath for 20 minutes. The amount of DNA in μg per 1 ml of the hydrolysate was calculated using the following formula: [formula] where C=is the DNA concentration (μg/ml). Catalase Activity
Catalase activity was determined using the permanganate method. The optimal amount of the substrate (3 ml of 1% H2O2) and 1 ml of the enzyme were added to 10 ml of phosphate buffer, pH 7.8. After 10 minutes the reaction was stopped by adding 1.5 ml of H2SO4 (50%). The remaining hydrogen peroxide was filtered with 0.1M of KMnO4 solution. Catalase activity was calculated on the basis that 1 ml of 0.1M of KMnO4 solution corresponds to […] of H2O2.
SOD activity was determined using the dianisidine method, which is based on the fact that under ultraviolet irradiation Riboflavin (Rb) is converted to an excited (ionised) state and therefore becomes able to attack reduced dianisidine (DH2). […]

[9] = 200 mg three times per day plus conventional therapy
[10] = Table 3, 50 mg/kg intra-peritoneally one hour before Con A, male CBA mice
[11] = Healing effect over the course of 3 days
[12] = Protective effect, 30 minutes before the test
[13] = Table 4, 0.005M dose (Compound 2 19 mg/kg, Compound 7 16.4 mg/kg) + Con A
[14] = Table 4, 0.01M dose (Compound 2 38 mg/kg, Compound 7 32 mg/kg) + Con A
[15] = Table 4, 0.015M dose (Compound 2 57 mg/kg, Compound 7 49 mg/kg) + Con A
[16] = Table 4, 0.02M dose (Compound 2 76 mg/kg, Compound 7 65.6 mg/kg) + Con A

## OC[C@H]1O[C@@H](n2cnc3c(O)ncnc32)[C@H](O)[C@@H]1O [Riboxin, inosine, reference compound]
Myocardial infarction; [9]
  cholesterol levels: 85.5%
  level of prothrombin: 88.7%
Myocardial infarction; 200 mg three times per day plus conventional therapy, 54.4±1.5% in the absence of the agent
  ejection fraction: 56.8±1.3%
Myocardial infarction; after therapy, 18-20 before treatment, norm 23
  superoxide dismutase levels: 21.5 conventional units
Myocardial infarction; after therapy, 75 before treatment, normal 60
  level of Schiff bases: 62.6 conventional units
Myocardial infarction; patients with repeated myocardial infarct
  cases in which cicatrisation took place one or two days earlier: 12%

## CCn1cnc(C(=O)NC)c1C(=O)NC [Ethimizol, 1-ethylimidazole-4,5-dicarboxylic acid bis-N-methylamide, reference compound]
[1]
  ATPase: 0.43 ± 0.11 µM/mg/min
  Glucose-6-phosphate dehydrogenase (optical density units): 5.8 ± 0.7 optical density units
  Succinate dehydrogenase (optical density units): 39.7 ± 7.4 optical density units

## 1,3-dimethyl-4,5-bis(N-methylcarbamoyl)-imidazolium benzenesulfonate [Compound 1]
White male mice
  toxicity: very low toxicity
  LD50: 1833 mg/kg
[2]
  % reduction of degree of ulceration: 53%
  Average number of lesions per animal: 8.8 ± 1.9
[3]; Table 3, 10 mg/kg intra-peritoneally one hour before Con A, male CBA mice
  Reaction index (%): 14.6 ± 3.5%
[3]; [10]
  Reaction index (%): 5.3 ± 2.0 %
[4]; [11]
  % reduction of degree of ulceration: 18%
  Average number of lesions per animal: 2.8 ± 0.7
[4]; [12]
  % reduction of degree of ulceration: 0%
  % reduction of ulcerated area: 0%
  Area of lesion: 15.0 ± 4.7
[4]; Protective effect, 30 minutes before the test, 20 mg/kg intraperitoneally
  Average number of lesions per animal: 7.0 ± 0.7
[5]
  % reduction of degree of ulceration: 0%
  % reduction of ulcerated area: 0%
  Area of lesion: 10.1 ± 1.4
[5]; 20 mg/kg intraperitoneally
  Average number of lesions per animal: 10.2 ± 1.2

## O=C(O)c1cc(/N=N/c2ccc(S(=O)(=O)Nc3ccccn3)cc2)ccc1O [Sulphasalazine, Sulfasalazine, reference compound]
[6]
  animals demonstrating complete healing: 18%

## Cc1cc(=O)[nH]c(=O)[nH]1 [Methyl uracil, reference compound]
[6]
  animals demonstrating complete healing: 18%

## CC[n+]1cn(C)c(C(=O)NC)c1C(=O)NC.O=C([O-])c1ccccc1 [Compound 5, 1-methyl-3-ethyl-4,5-bis(N-methylcarbamoyl)-imidazolium benzoate]
[7]
  histological findings in the liver: some of the animals demonstrated hepatocyte hypertrophy combined with subacute hepatitis
[3]; [10]
  Reaction index (%): 7.2 ± 1.8 %
[8]; 0.2 mM/kg
  Catalase E activity: 17.3 ± 2.6 μgM/min/g tissue × 1000
  DNA content (in mg/g of tissue): 3.76 ± 0.29 mg/g of tissue
  Protein content: 86.8 ± 6.9 Mg/g tissue
  RNA content (mg/g of tissue): 7.46 ± 0.14 mg/g of tissue
  SOD activity: 103.0 ± 4.4 Units/g tissue
[8]; 0.2 mM/kg intraperitoneally, 7 days, hepatectomy alone = 100
  Level of recovery: 120.3

## 1-methyl-3-ethyl-4,5-bis(N-methylcarbamoyl)-imidazolium 2,4-dihydroxybenzoate [Compound 7]
White male mice
  toxicity: very low toxicity
  LD50: 1221 mg/kg
[3]; [13]
  Paw oedema reduction (%): 60%
  Reaction index (%): 6.73 ± 2.2%
[3]; [14]
  Paw oedema reduction (%): 13%
  Reaction index (%): 9.93 ± 2.8%
[3]; [15]
  Paw oedema reduction (%): 45%
  Reaction index (%): 7.2 ± 1.8%
[3]; [16]
  Paw oedema reduction (%): 70%
  Reaction index (%): 4.9 ± 1.7%
[3]; male mice
  ED50, dose reducing paw oedema by 50% one hour after injection of Concanavalin A: 52 mg/kg

Reference: patent publication US20060135587A1, “Method and compounds for promoting healing and reducing inflammation” (priority 2002, published 2006)
